Literature values, collected in patent US20110105624A1, “ENDIPALENE FORMULATIONS IN THE TREATMENT OF PSORIASIS” (priority 2008, published 2011).

System: volunteers with psoriasis

Structure (SMILES): COc1c(OC)c(OC(C)=O)c2cc(Cl)ccc2c1OC(C)=O [Lonapalene, 6-chloro-2,3-dimethoxynaphtalendiacetate]
- clinical improvement in lesions (2% ointment, topical, compared with vehicle-treated sites): statistically significant clinical improvement
- side effects related to topical application (topical application): serious side effects
